Assays:
SH-SY5Y cells = test: RNA-seq analysis of transcriptome and splicing changes in SH-SY5Y cells; assay type: cell-based, human; conditions: for splicing events altered: 24 h
Procedure: SHY5Y cells were seeded in 6-well plates at 6×10^5 cells/well in 2 mL 10% FBS, DMEM and incubated for 4 hours. Cells were then treated with two biological replicates of HTT-C1 at 24 nM or 100 nM (in 0.1% DMSO), or four biological replicates of vehicle control (DMSO) for 24 hours (37° C., 5% CO2, 100% relative humidity). HEK293 cells transfected with U1 snRNA minigene constructs treated with either duplicates of 1 μM HTT-C1 or 0.5% DMSO control and incubated for 48 hours (37° C., 5% CO2, 100% relative humidity).
For library preparation and sequencing, mRNA was enriched from about 3 μg of total RNA using oligo(dT) beads (ThermoFisher Scientific). The mRNA was fragmented randomly using fragmentation buffer followed by cDNA synthesis using the mRNA template and random hexamers primer. Second-strand synthesis buffer (Illumina), deoxynucleotides, ribonuclease H and DNA polymerase I were added to initiate second-strand synthesis. After a series of terminal repair, A-ligation and sequencing adaptor ligation, the double-stranded cDNA library was size selected and enriched by PCR. RNA libraries were sequenced in a HiSeq sequencer (Illumina).
RNA sequencing reads were mapped to human genome (hg19) using Spliced Transcripts Alignment to a Reference (STAR) software (version 2.5) (Dobin et L., (2013) Bioinformatics 1; 29(1):15-21). Uniquely mapped reads (with MAPQ>10) having <5 nt/100 nt mismatches were used for analysis.
For gene expression analysis, the number of reads in a coding sequence (CDS) region of protein-coding genes and exonic regions of non-coding genes were counted and analyzed using DESeq2 (Love et al., (2014) Genome Biology, 15:550). For splicing analysis, reads were counted for different exons or exonic regions. For each exon, a Percent-Spliced-In (PSI) value was calculated using the percent of average read number supporting the inclusion of the exon (include both the upstream and downstream junctions) among all reads supporting either the inclusion or the exclusion of an exon. A minimal of 20 for the denominator of PSI calculation was required. Otherwise a “NA” value would be generated. PSI values for biological replicates were averaged and the PSI difference between two treatment groups was calculated. For statistical test, a 2×2 read counts table was made for each exon with rows for reads supporting inclusion or exclusion and columns for the two comparing sample groups (biological replicates were combined). Fisher's Exact Test was used for statistical test. PSI change of >20% (or <−20%) and P-value <0.001 was used to select exons being regulated by the treatment.

human HTT protein = test: Pharmacodynamic study in Hu97/18 mice, HTT protein in tissues, CSF and plasma; assay type: in vivo
Procedure: Test mice were euthanised and brain, muscle (quadriceps), and blood samples were harvested 2 hours after the last dose on Day 20. Prior to analysis, crude total protein from brain and muscle tissue samples was prepared by sample lysis in MSD® assay buffer 1 (MSD®) with Complete™ Protease Inhibitor Cocktail added (Roche Diagnostics). Tissues were then homogenised using TissueLyser II (Qiagen) plus a 5 mm stainless steel bead. The lysate was clarified by centrifugation at 16,000×g for 20 minutes at 4° C. and the total protein concentration quantified with the Pierce™ BCA Protein Assay Kit (Thermo Scientific) according to the manufacturer's instructions. Whole blood was collected by cardiac puncture into EDTA collection tubes. An aliquot (100-200 μL) was added to 1.5 mL of eBioscience™ 1× Red Blood Cell Lysis Buffer (Thermo Fisher) and mixed well for 5 minutes before collecting the white blood cells (WBC) by centrifugation at 400×g. The supernatant was discarded, and the pellet of WBCs was frozen in liquid nitrogen and stored at −70° C. Brain and muscle sample lysates were analysed for hHTT and KRAS protein expression using the ECL protein assay (described previously); using the same method WBC samples were also analysed for hHTT expression but not KRAS.
Hu97/Hu18: Both sexes of 2-4 month old Hu97/181 mice were used. […]

SMILES	UP cassette exons with no annotation for at least one splice site (SH-SY5Y cells; 24 nM)	expression of HTT (RNA-seq) (SH-SY5Y cells; 24 nM (~2x the IC50))	splicing events altered (SH-SY5Y cells; 24 nM)	UP cassette exons with no annotation for at least one splice site (SH-SY5Y cells; 100 nM)	splicing events altered (SH-SY5Y cells; 100 nM)	pseudoexons activated (SH-SY5Y cells; FIG. 6D comparison with U1-GA variant)	pseudoexons induced (SH-SY5Y cells; at either concentration (24 nM or 100 nM))	HTT protein in striatum and cortex (human HTT protein; 2, 6 or 12 mg/kg daily for 21 days)	HTT protein within the brain and peripheral tissues (human HTT protein; Hu97/18 mice)
CC1(C)CC(Oc2ccc(-c3ccc(-c4cn[nH]c4)cc3O)nn2)CC(C)(C)N1 [HTT-C2]	22%	selectively and potently downregulated expression of HTT	165	44%	215	27	31		
CCN1CCC(c2cc3c(F)cc(-c4cc(C)c5nc(C)cn5n4)cc3nn2)CC1 [HTT-D3]								uniform HTT protein reduction	dose dependent and more equitable lowering of HTT protein
